Test results taken from BindingDB's records for doi:10.1021/jm034056q (Wyeth Research, 2003).

molecular target: Beta-lactamase TEM (Escherichia coli) (UniProt P62593); assay: In vitro inhibitory activity against Beta-lactamase TEM-1 of class A enzyme
Sequence (P62593 whole entry, looked up): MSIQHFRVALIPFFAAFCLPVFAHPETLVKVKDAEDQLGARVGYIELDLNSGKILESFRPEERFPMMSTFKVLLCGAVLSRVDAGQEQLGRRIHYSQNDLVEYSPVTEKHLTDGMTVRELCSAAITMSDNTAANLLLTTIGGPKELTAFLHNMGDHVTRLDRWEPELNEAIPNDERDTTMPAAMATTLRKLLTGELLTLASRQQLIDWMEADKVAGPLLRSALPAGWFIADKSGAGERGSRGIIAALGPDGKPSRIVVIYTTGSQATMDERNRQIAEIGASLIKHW

| Compound | IC50 |
| --- | --- |
| CC1(C)[C@H](C(=O)O)N2C(=O)[C@@]3(C[C@H]3OC3CCCCC3)[C@H]2S1(=O)=O [2'-(cyclohexyloxy)-3,3-dimethyl-7-oxo-4-thia-1-azaspiro[bicyclo[3.2.0]heptane-6,1'-cyclopropane]-2-carboxylic acid 4,4-dioxide] | > 13000 nM |
| CC(C)(C)[Si](C)(C)O[C@@H]1C[C@@]12C(=O)N1[C@@H](C(=O)O)C(C)(C)S(=O)(=O)[C@@H]12 [(2S,5R,6R)-2'-(tert-Butyl-dimethyl-silanyl-oxy)-3,3-dimethyl-7-oxo-4-thia-1-azaspiro[bicyclo[3.2.0]heptane-6,1'-cyclopropane]-2-carboxylic acid 4,4-dioxide] | 12000 nM |
| CC(C)(C)[Si](C)(C)O[C@H]1C[C@@]12C(=O)N1[C@@H](C(=O)O)C(C)(C)S(=O)(=O)[C@@H]12 [(2R,5R,6R)-2'-(tert-Butyl-dimethyl-silanyl-oxy)-3,3-dimethyl-7-oxo-4-thia-1-azaspiro[bicyclo[3.2.0]heptane-6,1'-cyclopropane]-2-carboxylic acid 4,4-dioxide] | 17000 nM |
| CC1(C)[C@H](C(=O)O)N2C(=O)[C@@]3(C[C@@H]3OC3CCCCC3)[C@H]2S1(=O)=O [(2S,5R,6S)-2'-(cyclohexyloxy)-3,3-dimethyl-7-oxo-4-thia-1-azaspiro[bicyclo[3.2.0]heptane-6,1'-cyclopropane]-2-carboxylic acid 4,4-dioxide] | 1700 nM |
| CC1(C)[C@H](C(=O)O)N2C(=O)[C@]3(C[C@@H]3OC3CCCCC3)[C@H]2S1(=O)=O [(2S,5R,6R)-2'-(cyclohexyloxy)-3,3-dimethyl-7-oxo-4-thia-1-azaspiro[bicyclo[3.2.0]heptane-6,1'-cyclopropane]-2-carboxylic acid 4,4-dioxide] | 510 nM |
| CC(C)(C)[Si](C)(C)O[C@H]1C[C@]12C(=O)N1[C@@H](C(=O)O)C(C)(C)S(=O)(=O)[C@@H]12 [(2S,5R,6R)-2'-(tert-Butyl-dimethyl-silanyl-oxy)-3,3-dimethyl-7-oxo-4-thia-1-azaspiro[bicyclo[3.2.0]heptane-6,1'-cyclopropane]-2-carboxylic acid 4,4-dioxide] | 650 nM |
